≈ marks a conversion by molar mass, not a printed value. Read-outs that look alike come from different tables or passages of the source.
How the values were obtained:
BsSecA [1] = target: T1, BsSecA (Bacillus subtilis, UniProt P28366); assay: biochemical; assay type: biochemical, B. subtilis; settings: for Effect on the intrinsic ATPase activity of BsSecA: Example 1
EcSecA N68 = EcSecA N68 (Escherichia coli, UniProt P10408); assay: biochemical; assay type: biochemical, E. coli
F1F0-proton ATPase = F1F0-proton ATPase (Escherichia coli, UniProt P0ABB0+P0ABB4); assay: Proton ATPase activity, reconstituted liposomes; assay type: biochemical, E. coli
Experimental: The N-terminal catalytic domain of SecA from E. coli (EcN68) was overexpressed from pIMBB28. EcN68 was used for the early and initial screening because it has higher intrinsic activity and is more sensitive to inhibitors. […] SecA proteins were purified as previously described. F1F0-proton ATPase-enriched membrane of E. coli strain KY7485 was prepared as described in the literature. F1F0-proton ATPase was partially purified by sucrose-gradient fractionation and then reconstituted into liposomes by dialysis. Non-radiolabeled and [^35S]-labeled proOmpA were purified as previously described. SecA-depleted BA13 membrane vesicles were prepared as described in the literature,[32] and washed with 6M urea to reduce endogenous ATPase activity.

EcSecA [2] = assay type: biochemical, E. coli
EcSecA [3] = target: T2, EcSecA (Escherichia coli, UniProt P10408)
Target sequence in this assay (P0AG99 whole entry): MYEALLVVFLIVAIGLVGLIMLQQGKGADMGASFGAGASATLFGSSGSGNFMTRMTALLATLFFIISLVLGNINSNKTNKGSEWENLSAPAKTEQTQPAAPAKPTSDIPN
Target sequence in this assay (P10408 whole entry): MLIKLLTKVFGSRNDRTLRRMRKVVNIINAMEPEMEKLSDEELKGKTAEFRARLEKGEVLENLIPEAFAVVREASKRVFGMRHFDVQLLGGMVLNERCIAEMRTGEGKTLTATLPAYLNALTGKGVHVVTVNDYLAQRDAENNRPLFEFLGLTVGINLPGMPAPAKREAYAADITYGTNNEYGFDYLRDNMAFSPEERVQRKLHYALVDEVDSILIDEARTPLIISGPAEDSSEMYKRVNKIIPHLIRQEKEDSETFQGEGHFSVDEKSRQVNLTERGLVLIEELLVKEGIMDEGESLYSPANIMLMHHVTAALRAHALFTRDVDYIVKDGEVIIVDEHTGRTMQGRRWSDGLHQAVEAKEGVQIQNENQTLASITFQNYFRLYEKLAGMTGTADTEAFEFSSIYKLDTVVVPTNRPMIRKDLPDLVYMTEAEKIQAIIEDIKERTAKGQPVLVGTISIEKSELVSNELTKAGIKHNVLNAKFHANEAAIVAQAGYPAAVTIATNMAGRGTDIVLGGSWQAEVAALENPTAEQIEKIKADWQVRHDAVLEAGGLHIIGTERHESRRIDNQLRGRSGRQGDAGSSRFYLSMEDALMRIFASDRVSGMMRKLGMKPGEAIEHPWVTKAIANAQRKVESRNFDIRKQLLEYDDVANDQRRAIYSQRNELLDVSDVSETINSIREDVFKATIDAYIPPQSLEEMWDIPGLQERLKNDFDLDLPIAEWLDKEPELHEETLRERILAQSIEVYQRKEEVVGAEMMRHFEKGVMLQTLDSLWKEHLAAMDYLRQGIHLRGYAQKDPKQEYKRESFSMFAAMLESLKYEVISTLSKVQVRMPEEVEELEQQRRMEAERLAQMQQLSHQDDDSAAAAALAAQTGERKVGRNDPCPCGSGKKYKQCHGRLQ
Target sequence in this assay (P0AGA2 whole entry, further chain): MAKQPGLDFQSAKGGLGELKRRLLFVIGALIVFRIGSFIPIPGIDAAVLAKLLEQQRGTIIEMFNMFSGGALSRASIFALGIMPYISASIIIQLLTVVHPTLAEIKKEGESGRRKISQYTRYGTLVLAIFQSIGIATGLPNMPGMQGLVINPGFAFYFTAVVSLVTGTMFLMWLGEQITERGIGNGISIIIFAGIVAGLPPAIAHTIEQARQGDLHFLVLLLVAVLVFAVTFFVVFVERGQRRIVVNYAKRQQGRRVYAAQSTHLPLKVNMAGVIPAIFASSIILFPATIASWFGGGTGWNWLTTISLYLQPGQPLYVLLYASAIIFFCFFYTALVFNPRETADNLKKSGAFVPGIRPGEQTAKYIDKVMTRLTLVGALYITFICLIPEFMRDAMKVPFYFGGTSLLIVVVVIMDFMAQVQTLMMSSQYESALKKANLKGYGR
Target sequence in this assay (P0AG96 whole entry, further chain): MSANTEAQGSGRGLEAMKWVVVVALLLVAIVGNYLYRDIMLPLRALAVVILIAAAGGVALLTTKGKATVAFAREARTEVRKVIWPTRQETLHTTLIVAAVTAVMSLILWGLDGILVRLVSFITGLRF

EcSecA [4] = target: T2, EcSecA; settings: read-out: IC50, in vitro protein translocation of proOmpA; Example 1
Target sequence in this assay (P0AG99 whole entry): as the sequence (P0AG99 whole entry) above
Target sequence in this assay (P10408 whole entry): as the sequence (P10408 whole entry) above
Target sequence in this assay (P0AGA2 whole entry, further chain): as the sequence (P0AGA2 whole entry, further chain) above
Target sequence in this assay (P0AG96 whole entry, further chain): as the sequence (P0AG96 whole entry, further chain) above

EcSecA [5] = target: T2, EcSecA; settings: read-out: IC50, membrane ATPase activity of EcSecA; Example 1
Target sequence in this assay (P0AG99 whole entry): as the sequence (P0AG99 whole entry) above
Target sequence in this assay (P10408 whole entry): as the sequence (P10408 whole entry) above
Target sequence in this assay (P0AGA2 whole entry, further chain): as the sequence (P0AGA2 whole entry, further chain) above
Target sequence in this assay (P0AG96 whole entry, further chain): as the sequence (P0AG96 whole entry, further chain) above

PaSecA = PaSecA (Pseudomonas aeruginosa, UniProt Q9LCT3); assay: cell-based; assay type: cell-based
SpSecA = SpSecA (Streptococcus pyogenes, UniProt Q99Y96); assay type: cell-based; settings: read-out: IC50, Ion Channel activity, SpSecA
B. anthracis Sterne = assay: microbe, parasite or virus in culture; assay type: cell-based; settings: Bacillus anthracis, read-out: Bacteriostatic MIC95, B. anthracis Sterne
S. pyogenes, MGAS5005 = assay: MIC95, S. pyogenes MGAS5005; assay type: cell-based
B. subtilis 168 [6] = assay: Bactericidal effect assay, B. subtilis 168; assay type: cell-based
B. subtilis 168 [7] = assay: Bacteriostatic effect, liquid microdilution, B. subtilis 168; assay type: cell-based; settings: Bacillus subtilis, Example 2
[8] = Bactericidal effect in the dark and under light (photooxidation); assay type: cell-based
S. aureus Mu3 = assay: Bacteriostatic effect, S. aureus Mu3; settings: Staphylococcus aureus, MU3, read-out: Bacteriostatic effect, MIC, S. aureus Mu3
S. aureus Mu50 = assay: Bacteriostatic effect, S. aureus Mu50; settings: Staphylococcus aureus
S. aureus 6538 = assay: Bacteriostatic effect, S. aureus 6538; settings: Staphylococcus aureus, 6538, read-out: Bacteriostatic effect, MIC, S. aureus 6538
S. aureus N315 = assay: Bacteriostatic effect, S. aureus N315; settings: Staphylococcus aureus, N315, read-out: Bacteriostatic effect, MIC, S. aureus N315
BsSecA2 = settings: read-out: IC50, Intrinsic ATPase, BsSecA2; Table 1
S. aureus 8325-4 = assay: Bacteriostatic effect, S. aureus 8325-4 (WT); settings: Staphylococcus aureus, 83254, read-out: Bacteriostatic effect, MIC, WT 8325-4
SaSecA2 = target: T3, SaSecA2 (Staphylococcus aureus, UniProt Q2FUW6); assay: ATPase activity assay (malachite green), SaSecA2
T3 sequence (Q2FUW6 1-796): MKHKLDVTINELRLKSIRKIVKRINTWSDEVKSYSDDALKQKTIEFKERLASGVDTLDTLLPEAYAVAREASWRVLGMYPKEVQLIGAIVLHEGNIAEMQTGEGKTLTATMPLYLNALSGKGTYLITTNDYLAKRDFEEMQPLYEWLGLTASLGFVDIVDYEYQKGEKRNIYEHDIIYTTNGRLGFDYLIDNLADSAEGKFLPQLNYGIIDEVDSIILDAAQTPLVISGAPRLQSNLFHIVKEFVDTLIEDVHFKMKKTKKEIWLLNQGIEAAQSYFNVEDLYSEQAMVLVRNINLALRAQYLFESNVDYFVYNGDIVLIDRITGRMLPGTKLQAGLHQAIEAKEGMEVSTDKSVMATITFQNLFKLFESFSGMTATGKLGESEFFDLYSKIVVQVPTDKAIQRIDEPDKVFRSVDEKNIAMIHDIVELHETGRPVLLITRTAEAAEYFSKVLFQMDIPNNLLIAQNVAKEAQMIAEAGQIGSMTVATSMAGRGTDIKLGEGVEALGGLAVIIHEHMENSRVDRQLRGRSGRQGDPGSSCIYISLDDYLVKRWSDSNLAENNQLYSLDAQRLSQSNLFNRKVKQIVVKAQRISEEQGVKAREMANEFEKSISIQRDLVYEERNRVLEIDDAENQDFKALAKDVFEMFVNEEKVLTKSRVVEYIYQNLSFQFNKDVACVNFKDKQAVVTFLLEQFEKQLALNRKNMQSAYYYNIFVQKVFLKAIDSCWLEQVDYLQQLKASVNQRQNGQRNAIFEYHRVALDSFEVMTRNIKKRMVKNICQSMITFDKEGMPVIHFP

[9] = tested on: SecA (S. pyogenes, S. aureus, and E. coli); assay: Oocyte assay, inhibition of SecA; settings: read-out: IC50, inhibiting SecA in the oocyte assay
BaSecA1 = BaSecA1 (Bacillus anthracis, UniProt Q81X26); assay: cell-based; settings: read-out: IC50, Ion Channel activity, BGaSecA 1
BsSecA [10] = target: T1, BsSecA; assay: cell-based; set-up: species or system B. subtilis
MsSecA = MsSecA (Mycolicibacterium smegmatis, UniProt P71533); assay: SecA-liposomes ion-channel activity in oocytes, MsSecA; assay type: cell-based; settings: Table 1
MtbSecA = MtbSecA (Mycobacterium tuberculosis, UniProt P9WGP5); assay: cell-based
EcSecA [11] = target: T2, EcSecA; settings: read-out: IC50, Ion Channel activity, EcSecA; Table 1
Target sequence in this assay (P10408 whole entry): as the sequence (P10408 whole entry) above

SaSecA1 = target: T4, SaSecA1 (Staphylococcus aureus, UniProt O06446); settings: read-out: IC50, Ion Channel activity, SaSecA1; Table 1
T4 sequence (O06446 1-843): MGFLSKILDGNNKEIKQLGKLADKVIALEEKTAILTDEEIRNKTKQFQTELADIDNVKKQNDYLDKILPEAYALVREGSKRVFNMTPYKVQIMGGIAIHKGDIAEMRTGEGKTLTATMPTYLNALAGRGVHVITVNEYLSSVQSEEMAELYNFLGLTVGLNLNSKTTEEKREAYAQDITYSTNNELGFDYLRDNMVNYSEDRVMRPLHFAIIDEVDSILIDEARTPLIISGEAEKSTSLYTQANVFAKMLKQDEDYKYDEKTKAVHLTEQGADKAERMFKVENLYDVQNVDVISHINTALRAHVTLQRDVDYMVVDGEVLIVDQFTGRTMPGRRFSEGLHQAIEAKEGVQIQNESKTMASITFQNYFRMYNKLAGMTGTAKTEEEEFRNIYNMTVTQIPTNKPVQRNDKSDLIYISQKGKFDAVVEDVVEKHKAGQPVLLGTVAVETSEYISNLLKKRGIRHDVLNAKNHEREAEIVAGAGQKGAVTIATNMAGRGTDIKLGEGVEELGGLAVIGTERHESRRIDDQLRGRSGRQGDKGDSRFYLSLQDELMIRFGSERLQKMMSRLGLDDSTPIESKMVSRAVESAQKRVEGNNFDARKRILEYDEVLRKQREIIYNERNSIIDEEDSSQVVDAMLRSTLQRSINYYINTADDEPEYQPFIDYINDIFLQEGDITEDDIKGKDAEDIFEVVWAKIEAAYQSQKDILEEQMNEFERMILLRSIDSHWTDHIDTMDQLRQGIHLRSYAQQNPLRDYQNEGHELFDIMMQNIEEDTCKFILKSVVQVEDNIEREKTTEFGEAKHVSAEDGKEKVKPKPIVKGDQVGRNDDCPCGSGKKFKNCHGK

EcSecA [12] = target: T2, EcSecA; assay: biochemical; settings: IC50, Protein Translocation, Table 1
Target sequence in this assay (P0AG99 whole entry): as the sequence (P0AG99 whole entry) above
Target sequence in this assay (P10408 whole entry): as the sequence (P10408 whole entry) above
Target sequence in this assay (P0AGA2 whole entry, further chain): as the sequence (P0AGA2 whole entry, further chain) above
Target sequence in this assay (P0AG96 whole entry, further chain): as the sequence (P0AG96 whole entry, further chain) above

EcSecA [13] = tested on: EcSecA
EcSecA [14] = target: T2, EcSecA; assay: cell-based
Target sequence in this assay (P10408 whole entry): as the sequence (P10408 whole entry) above

[15] = IC50, Ion Channel activity, PASecA, Table 1
[16] = IC50, Intrinsic ATPase, SaSecA2, Table 1

PaSecA, sequence (Q9LCT3 whole entry): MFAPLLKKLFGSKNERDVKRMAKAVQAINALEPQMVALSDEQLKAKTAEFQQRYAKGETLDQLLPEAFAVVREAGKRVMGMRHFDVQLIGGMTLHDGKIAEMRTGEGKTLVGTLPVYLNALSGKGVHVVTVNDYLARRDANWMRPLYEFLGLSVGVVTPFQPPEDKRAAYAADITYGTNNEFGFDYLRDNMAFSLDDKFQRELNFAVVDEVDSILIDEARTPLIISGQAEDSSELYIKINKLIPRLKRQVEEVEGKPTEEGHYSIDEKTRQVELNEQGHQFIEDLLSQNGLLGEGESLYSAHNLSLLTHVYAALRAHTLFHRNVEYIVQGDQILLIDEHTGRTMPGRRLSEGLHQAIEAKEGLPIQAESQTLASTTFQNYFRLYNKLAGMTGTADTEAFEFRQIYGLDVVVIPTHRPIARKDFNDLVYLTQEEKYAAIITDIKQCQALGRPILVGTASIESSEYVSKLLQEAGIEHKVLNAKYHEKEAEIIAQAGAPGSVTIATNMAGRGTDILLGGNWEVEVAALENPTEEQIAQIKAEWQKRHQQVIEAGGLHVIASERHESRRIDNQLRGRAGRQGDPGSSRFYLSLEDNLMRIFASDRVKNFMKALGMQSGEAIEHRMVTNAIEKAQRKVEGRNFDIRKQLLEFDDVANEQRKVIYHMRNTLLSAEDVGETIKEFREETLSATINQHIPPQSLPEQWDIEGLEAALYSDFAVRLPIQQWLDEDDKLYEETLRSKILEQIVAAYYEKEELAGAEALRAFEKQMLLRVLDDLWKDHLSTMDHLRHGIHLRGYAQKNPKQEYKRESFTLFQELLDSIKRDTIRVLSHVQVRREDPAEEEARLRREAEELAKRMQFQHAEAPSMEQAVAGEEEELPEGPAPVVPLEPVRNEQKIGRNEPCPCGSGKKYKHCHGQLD
T1 sequence (P28366 whole entry): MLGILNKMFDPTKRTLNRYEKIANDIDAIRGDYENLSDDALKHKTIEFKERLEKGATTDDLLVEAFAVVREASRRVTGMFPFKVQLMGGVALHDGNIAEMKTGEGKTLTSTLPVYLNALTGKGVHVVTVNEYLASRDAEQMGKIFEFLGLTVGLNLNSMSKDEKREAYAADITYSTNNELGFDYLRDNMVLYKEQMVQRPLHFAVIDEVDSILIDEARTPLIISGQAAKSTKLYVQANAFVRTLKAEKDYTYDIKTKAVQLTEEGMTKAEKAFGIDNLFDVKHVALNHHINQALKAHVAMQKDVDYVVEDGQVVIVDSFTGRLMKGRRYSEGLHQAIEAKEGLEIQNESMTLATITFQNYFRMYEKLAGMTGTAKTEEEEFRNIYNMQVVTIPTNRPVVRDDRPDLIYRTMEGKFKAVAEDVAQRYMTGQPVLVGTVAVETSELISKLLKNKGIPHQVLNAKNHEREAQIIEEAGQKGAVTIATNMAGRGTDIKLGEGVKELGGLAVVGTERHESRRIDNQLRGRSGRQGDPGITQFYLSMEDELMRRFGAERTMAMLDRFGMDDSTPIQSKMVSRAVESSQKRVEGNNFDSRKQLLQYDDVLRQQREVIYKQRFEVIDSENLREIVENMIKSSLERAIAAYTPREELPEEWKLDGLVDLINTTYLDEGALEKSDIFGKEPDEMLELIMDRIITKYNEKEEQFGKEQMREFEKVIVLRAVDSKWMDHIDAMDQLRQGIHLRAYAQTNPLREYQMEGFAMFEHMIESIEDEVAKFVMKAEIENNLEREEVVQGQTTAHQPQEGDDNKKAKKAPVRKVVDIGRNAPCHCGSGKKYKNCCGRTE
EcSecA N68, sequence (P10408 1-610): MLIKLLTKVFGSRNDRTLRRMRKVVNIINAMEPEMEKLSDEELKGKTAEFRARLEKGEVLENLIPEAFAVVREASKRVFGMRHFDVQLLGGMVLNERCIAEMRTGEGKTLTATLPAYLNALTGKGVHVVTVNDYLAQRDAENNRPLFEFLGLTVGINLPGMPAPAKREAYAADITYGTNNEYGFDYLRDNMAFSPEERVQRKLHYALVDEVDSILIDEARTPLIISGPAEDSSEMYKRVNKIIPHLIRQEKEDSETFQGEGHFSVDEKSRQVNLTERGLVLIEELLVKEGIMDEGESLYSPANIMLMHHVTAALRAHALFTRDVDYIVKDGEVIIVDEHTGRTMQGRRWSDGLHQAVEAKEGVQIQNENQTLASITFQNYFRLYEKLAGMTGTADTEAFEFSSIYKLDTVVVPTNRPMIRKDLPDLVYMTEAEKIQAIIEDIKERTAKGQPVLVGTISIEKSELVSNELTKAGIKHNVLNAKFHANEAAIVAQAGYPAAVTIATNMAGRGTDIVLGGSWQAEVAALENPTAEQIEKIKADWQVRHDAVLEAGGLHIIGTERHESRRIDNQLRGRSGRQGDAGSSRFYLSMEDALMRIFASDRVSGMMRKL

For O.O=C([O-])c1ccccc1-c1c2cc(I)c(=O)c(I)c-2oc2c(I)c([O-])c(I)cc12.[Na+].[Na+] [EB, Erythrosin B], the “Effect on the intrinsic ATPase activity of BsSecA” value (BsSecA [1]) was “inhibitory effects”, the IC50 (EcSecA N68; Example 1, fluorescein analogs, read-out: IC50, EcN68 SecA ATPase (unregulated ATPase)) was 2 µM and the IC50 (F1F0-proton ATPase; Example 1, read-out: IC50 against F1F0-proton ATPase) was roughly 30 µM. For the same compound, the “Mode of inhibition against ATP” value (EcSecA [2]; at low ATP concentrations) was “competitive inhibitors”, the IC50 (EcSecA [3]; read-out: IC50, translocation ATPase activity of EcSecA, Example 1) was 10 to 20 µM and the IC50 (EcSecA [4]) was 4 µM. It also gave an IC50 (EcSecA [5]) of 10 to 20 µM.

With O=C(O)c1c(Cl)c(Cl)c(Cl)c(Cl)c1-c1c2cc(I)c(=O)c(I)c-2oc2c(I)c(O)c(I)cc12 [RB, Rose Bengal] the “Effect on the intrinsic ATPase activity of BsSecA” value (BsSecA [1]) was “inhibitory effects”, the “Inhibition kinetics, channel activity, PaSecA-liposomes” value (PaSecA; FIG. 3C) was “non-competitive inhibition” and the IC50 (PaSecA; [15]) was 0.3 µM. It also gave an IC50 (PaSecA; Rose Bengal IC50, channel activity, PaSecA, +SecYEG + SecDF•C) of 2 µM, an IC50 (PaSecA; Rose Bengal IC50, channel activity, PaSecA, BA13, BA13 (first value of BA13/Re-13)) of 5.1 µM and an IC50 (PaSecA; Rose Bengal IC50, channel activity, PaSecA, Liposome + SecYEG) of 1.1 µM. It also gave an IC50 (PaSecA; Rose Bengal IC50, channel activity, PaSecA, Liposomes) of 0.3 µM, an IC50 (PaSecA; Rose Bengal IC50, channel activity, PaSecA, Re-13, Re-13 (second value of BA13/Re-13)) of 0.3 µM and an IC50 (SpSecA; Table 1) of 0.9 µM. For the same compound, the IC50 (F1F0-proton ATPase) was roughly 10 µM, the MIC (B. anthracis Sterne) was 12.2 µg/mL (≈ 12.5 µM) and the MIC (S. pyogenes, MGAS5005; Streptococcus pyogenes, MGAS5005, read-out: MIC95, S. pyogenes MGAS5005) was 6.25 µM (≈ 6.09 µg/mL). The “Bactericidal effect, kill of B. subtilis 168” value (B. subtilis 168 [6]; 20 μM, one hour, FIG. 2) was “little effect”, the “Decrease of cell survival (CFU)” value (B. subtilis 168 [6]; 100 μM, one-hour treatment) was roughly 8 log units and the MIC (B. subtilis 168 [7]) was 100 µM (≈ 97.4 µg/mL). The “Bactericidal effect in the dark” value ([8]; dark) was “little bactericidal effect”, the “Effect of light on the bactericidal effect” value ([8]; under light versus dark) was “dramatically increased” and the “Mode of inhibition against ATP” value (EcSecA [2]; at high ATP concentrations) was “competitive inhibition”. The MIC (S. aureus Mu3) was 38.2 µg/mL (≈ 39.2 µM), the MIC (S. aureus Mu50; MU50, read-out: Bacteriostatic MIC95, S. aureus Mu50) was 40.7 µg/mL and the MIC (S. aureus Mu50; MU50, read-out: Bacteriostatic effect MIC, S. aureus Mu50) was 50.8 µg/mL. The MIC (S. aureus Mu50; MU50, read-out: Bacteriostatic effect, MIC, S. aureus Mu50) was 50.8 µg/mL, the MIC (S. aureus 6538) was 38.2 µg/mL (≈ 39.2 µM) and the MIC (S. aureus N315) was 19.1 µg/mL (≈ 19.6 µM). For the same compound, the IC50 (BsSecA2) was 15 µM, the MIC (S. aureus 8325-4) was 13.2 µg/mL (≈ 13.6 µM) and the IC50 (SaSecA2; IC50, ATPase activity, SaSecA2, Table 7) was 2.5 µM. The IC50 (SaSecA2; [16]) was 1 µM and the IC50 [9] was 0.4 µM.

In the case of CSc1nc(Cl)cc(Sc2nnc(-c3cc(C(F)(F)F)cc(C(F)(F)F)c3)[nH]2)n1 [SCA-107], the IC50 (BsSecA [1]) is reported as greater than 200 µM, the IC50 (EcSecA N68; Table 1, read-out: IC50, Intrinsic ATPase, EcSecA N68) is reported as 30 µM and the IC50 (BaSecA1) is reported as 0.7 µM. The IC50 (PaSecA; [15]) was 1.3 µM, the IC50 (BsSecA [10]; Table 1, read-out: IC50, Ion Channel activity, BsSecA) was 2.1 µM and the IC50 (MsSecA) was 2.5 µM. It also gave an IC50 (MtbSecA) of 2 µM, an IC50 (SpSecA) of 0.7 µM and an MIC (S. pyogenes, MGAS5005; Streptococcus pyogenes, MGAS5005; read-out: MIC95, S. pyogenes MGAS5005) of 0.19 µM (≈ 0.0896 µg/mL). It also gave an IC50 (EcSecA [3]; read-out: IC50, Translocation ATPase, EcSecA, Table 1) of 28 µM, an IC50 (EcSecA [11]) of 1.6 µM and an IC50 (SaSecA1) of 0.6 µM. It also gave an IC50 (EcSecA [12]) of 25 µM, an MIC (S. aureus Mu50; MU50, read-out: MIC95 against drug resistant S. aureus Mu50) of 0.5 µM and an IC50 (BsSecA2) of 65 µM. It also gave an IC50 (SaSecA2; [16]) of 50 µM.

For Oc1ccc2c(c1)Oc1cc(O)ccc1C2C1CCCCC1 [Compound 22d, 9-Cyclohexyl-9H-xanthene-3,6-diol], the IC50 (BsSecA [10]; Ion channel, IC50, BsSecA, Table 5) was 6.6 µM, the MIC (B. subtilis 168 [7]) was 22 µM (≈ 6.52 µg/mL) and the “Potency against EcSecA over BsSecA, channel activity” value (EcSecA [13]) was “about 2 fold”. For the same compound, the IC50 (EcSecA [14]) was 2.8 µM.

Reference: US9957247B2, “SecA inhibitors and methods of making and using thereof” (Georgia State University Research Foundation, Inc., priority 2012, dated 2018)
